IC50 and EC50 data for 3 compounds are collected here from patent US12440571B2, “Immune agonists” (SHENZHEN UNIVERSITY, priority 2020, dated 2025).

What all share (format): cell-based
For assay [1], the system named is Murine breast cancer 4T1 cells. Kind of assay: CCK8 growth inhibition, 4T1. To be noted: Mus musculus, CCK8 method, 24 hrs (or 36, 72 hrs), read-out: IC50 of inhibitory activity on tumor cell growth, 4T1. The protocol: Murine breast cancer 4T1 cells (Kailian Biotech, KG338) in a logarithmic growth phase were selected and washed with PBS, digested with 0.25% trypsin (including EDTA), stopped digestion with a DMEM complete medium, then centrifuged, and resuspended to form a suspension of 4T1 single cells. Cells were counted using a hemocytometer and a cell concentration was calculated. A DMEM complete medium was used to adjust the cell suspension to a target concentration, and thereafter, the cells were plated on a 96-well cell culture plate according to 4×10^3/100 μL per well. After adherering to the wall, the 4T1 cells were stimulated according to the designed concentration gradients of the series of GY compounds or drugs, with each concentration being provided with 3 replicate holes. The 96-well cell culture plate with 4T1 cells seeded and dosing was placed in the cell incubator, and incubated at 37° C., 5% carbon dioxide for 24 hrs (or 36, 72 hrs). After the incubation time was over, 10 μL of CCK8 reagent was added to each well and incubated for 1-2 hrs at 37° C. A full-wavelength microplate reader was adopted to test an OD value at 450 nm wavelength.
CCK8 calculation formula is as follows: • Cell survival rate (100%)=[…]/(Ac−Ab)×100% • As: Absorbance of wells containing cells, CCK8 solution, and drug solution • Ac: Absorbance of wells containing cells and CCK8 solution, and no drug solution • Ab: Absorbance of wells containing CCK8 solution, no cells, and no drug solution
Cell growth inhibition rate (%)=1−((OD value of experimental group−OD value of blank group)/(OD value of control group−OD value of blank group)×100%).
(In general: Tetrazolium assays rely on reduction of a dye to a coloured formazan, in cell work by metabolically active cells.)

Assay [2] addresses T1, TLR7 (Homo sapiens, UniProt Q9NYK1).
T1 construct: host or cells: HEK-Blue hTLR7 cells (HEK293-derived SEAP reporter line)
T1 sequence (Q9NYK1 27-1049): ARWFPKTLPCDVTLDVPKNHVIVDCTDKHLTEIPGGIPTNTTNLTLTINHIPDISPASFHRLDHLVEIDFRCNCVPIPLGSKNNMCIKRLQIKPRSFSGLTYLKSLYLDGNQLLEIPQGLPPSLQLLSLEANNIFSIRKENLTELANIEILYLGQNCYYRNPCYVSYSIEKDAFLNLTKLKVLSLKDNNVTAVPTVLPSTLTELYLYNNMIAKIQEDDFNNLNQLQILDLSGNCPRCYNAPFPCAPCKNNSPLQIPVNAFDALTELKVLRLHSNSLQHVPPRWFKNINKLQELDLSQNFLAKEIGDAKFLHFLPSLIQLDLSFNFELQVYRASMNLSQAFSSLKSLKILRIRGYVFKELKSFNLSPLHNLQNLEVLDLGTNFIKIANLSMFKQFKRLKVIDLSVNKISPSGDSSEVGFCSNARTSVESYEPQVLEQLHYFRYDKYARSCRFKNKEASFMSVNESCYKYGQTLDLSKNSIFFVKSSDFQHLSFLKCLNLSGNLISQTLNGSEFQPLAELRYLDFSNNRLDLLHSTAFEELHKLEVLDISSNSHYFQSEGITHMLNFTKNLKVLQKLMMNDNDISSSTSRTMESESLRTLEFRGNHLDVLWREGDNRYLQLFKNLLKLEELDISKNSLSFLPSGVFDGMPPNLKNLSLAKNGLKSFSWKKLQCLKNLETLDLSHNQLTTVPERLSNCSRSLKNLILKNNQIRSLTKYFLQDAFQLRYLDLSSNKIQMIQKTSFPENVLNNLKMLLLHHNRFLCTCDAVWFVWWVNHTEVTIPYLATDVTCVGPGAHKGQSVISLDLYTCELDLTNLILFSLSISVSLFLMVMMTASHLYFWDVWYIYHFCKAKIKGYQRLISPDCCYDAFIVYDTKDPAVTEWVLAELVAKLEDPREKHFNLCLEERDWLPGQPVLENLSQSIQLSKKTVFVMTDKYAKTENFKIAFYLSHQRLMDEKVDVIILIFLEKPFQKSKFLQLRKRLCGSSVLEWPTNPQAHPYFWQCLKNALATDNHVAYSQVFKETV
Kind of assay: Detection of TLR7 activation (HEK-Blue Detection), SEAP reporter. To be noted: HEK-Blue hTLR7 cells, 6-16 hrs, absorbance 650 nm; read-out: TLR7(EC50/μM). The method in brief: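 HEK-Blue hTLR7 cells (2.5×10^4 per well, in HEK-Blue Detection medium) were stimulated with compound at 0.01, 0.1, 1, 5, 15 and 30 μM in triplicate for 6-16 h at 37 °C. SEAP was read as absorbance at 650 nm. Relative induction = (mean OD treated − mean OD negative control)/mean OD negative control.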

Assay [3] has as its system human lymphoma Raji cells. Kind of assay: CCK8 growth inhibition, Raji. To be noted: Homo sapiens, Raji, CCK8 method; read-out: IC50 of inhibitory activity on tumor cell growth, Raji.
The test system of assay [4] is murine colon cancer CT-26 cells. Kind of assay: CCK8 growth inhibition, CT26. The settings on record: Mus musculus, CCK8 method, read-out: IC50 of inhibitory activity on tumor cell growth, CT26.
Assay [5] deals with human leukemia HL-60 cells. Kind of assay: CCK8 growth inhibition, HL60. The settings on record: Homo sapiens, HL-60, CCK8 method; read-out: IC50 of inhibitory activity on tumor cell growth, HL60.
The test system of assay [6] is LLC. Kind of assay: CCK8 growth inhibition, LLC. The settings on record: Lewis lung carcinoma; CCK8 method; read-out: IC50 of inhibitory activity on tumor cell growth, LLC.
In assay [7] the test system is black melanoma B16 cells. The assay is described as follows: CCK8 growth inhibition, B16. To be noted: Mus musculus, CCK8 method, read-out: IC50 of inhibitory activity on tumor cell growth, B16.
In assay [8] the test system is human colon cancer HCT-116 cells. The assay is described as follows: CCK8 growth inhibition, HCT-116. To be noted: CCK8 method, read-out: IC50 of inhibitory activity on tumor cell growth, HCT-116.

Usually IC50 stands for the midpoint of a concentration-inhibition curve. On to `CCCCOc1nc(N)c2nc(O)n(Cc3cn(CCOCCOCCOCCNC(=S)N4CCCC(n5nc(-c6ccc(Oc7ccccc7)cc6)c6c(N)ncnc65)C4)nn3)c2n1` (stereo not shown) [GY112], for which the IC50 in assay [1] amounted to 1.45 µM; in assay [3], 10.6 µM; in assay [4], 25 µM; in assay [5], 9.75 µM; in assay [6], 18.8 µM; in assay [7], 34.1 µM. In addition, the IC50 in assay [8] was 15.7 µM. The EC50 in assay [2] was determined as 2.65 µM.
Turning to `CCCCOc1nc(N)c2nc(O)n(Cc3cn(CCOCCOCCOCCNC(=S)Nc4cc(Nc5nccc(-c6cn(C)c7ccccc67)n5)c(OC)cc4N(C)CCN(C)C)nn3)c2n1` [GY127], the IC50 stood at 17.3 µM in assay [1]; 16.9 µM in assay [4]; 19.1 µM in assay [5]; 15.3 µM in assay [6]; 20.8 µM in assay [8]. For the same compound, the EC50 in assay [2] was determined as 1.06 µM.
Turning to `CCCCOc1nc(N)c2nc(O)n(Cc3cn(CCCCN4CCN(CCCNC(=S)N5CCCC(n6nc(-c7ccc(Oc8ccccc8)cc7)c7c(N)ncnc76)C5)CC4)nn3)c2n1` (stereo not shown) [GY161], the IC50 in assay [1] amounted to 0.78 µM; in assay [3] it was 16.1 µM; in assay [4], 6.15 µM; in assay [7], 11.7 µM. In assay [2], the EC50 was 3.86 µM.
